The results in this text go back to patent publication US7220721B1, “Exendin agonist peptides” (Amylin Pharmaceuticals, Inc., priority 1997, dated 2007).

Experiment [1] relates to C57BLKS/J-m-db mice. Kind of experiment: Determination of blood glucose levels in db/db mice. The experiment is classed as in vivo. The settings on record: percent decrease in plasma glucose from baseline one hour after subcutaneous injection of 1 μg.
Experiment [2] addresses cyclase (membranes). Kind of experiment: Cyclase activation study (cAMP SPA immunoassay). In kind it is biochemical. The settings on record: cAMP in supernatant after 20 minutes incubation at 37° C. of membranes and peptides. The procedure:
GLP-1[7–36]NH2 (GLP-1) was purchased from Bachem (Torrance, Calif.). All other peptides were prepared using synthesis methods such as those described therein. All chemicals were of the highest commercial grade. The cAMP SPA immunoassay was purchased from Amersham. The radioligands were purchased from New England Nuclear (Boston, Mass.). […] Cells were grown at 37° C. and 5% CO2/95% humidified air and medium was replaced every 2 to 3 days. Cells were grown to confluence then harvested and homogenized using on a Polytron homogenizer. Cell homogenates were stored frozen at −70° C. until used. Assay buffer contained 10 μM GTP, 0.75 mM ATP, 2.5 mM MgCl21 0.5 mM phosphocreatine, 12.5 U/ml creatine kinase, 0.4 mg/ml aprotinin, 1 μM IBMX in 50 mM HEPES, pH 7.4. Membranes and peptides were combined in […] of assay buffer in 96 well filter-bottom plates (Millipore Corp., Bedford, Mass.). […] Supernatant cAMP contents were quantitated by SPA immunoassay. […] The biological activity of a particular sample was expressed as an EC50 value, calculated as described above.

Experiment [3] concerns the target GLP-1 receptor (on RINm5f membranes) (UniProt P32301).

GLP-1 receptor (on RINm5f membranes), sequence (P32301 22-463 limits assumed): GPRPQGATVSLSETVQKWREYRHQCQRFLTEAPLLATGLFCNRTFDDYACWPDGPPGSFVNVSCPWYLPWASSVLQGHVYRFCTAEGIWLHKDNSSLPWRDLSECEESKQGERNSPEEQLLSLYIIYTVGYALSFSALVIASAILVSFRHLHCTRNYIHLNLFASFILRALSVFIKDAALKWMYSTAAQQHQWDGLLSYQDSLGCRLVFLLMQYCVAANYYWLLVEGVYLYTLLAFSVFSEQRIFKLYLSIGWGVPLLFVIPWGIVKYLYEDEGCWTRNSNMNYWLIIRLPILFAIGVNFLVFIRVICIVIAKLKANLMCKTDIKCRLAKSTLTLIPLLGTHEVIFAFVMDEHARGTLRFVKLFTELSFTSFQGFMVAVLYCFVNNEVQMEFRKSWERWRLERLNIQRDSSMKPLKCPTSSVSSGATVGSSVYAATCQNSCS

A word on the EC50: it is the concentration giving half of the maximal effect. The low end stands for higher potency in that assay, the high end for lower potency in that assay. On to `CC[C@H](C)[C@H](NC(=O)[C@H](Cc1ccccc1)NC(=O)[C@H](CC(C)C)NC(=O)[C@H](CCCNC(=N)N)NC(=O)[C@@H](NC(=O)[C@H](C)NC(=O)[C@H](CCC(=O)O)NC(=O)[C@H](CCC(=O)O)NC(=O)[C@H](CCC(=O)O)NC(=O)[C@H](CC(C)C)NC(=O)[C@H](CCC(N)=O)NC(=O)[C@H](CCCCN)NC(=O)[C@H](CO)NC(=O)[C@H](CC(C)C)NC(=O)[C@H](CC(=O)O)NC(=O)[C@H](CO)NC(=O)[C@@H](NC(=O)[C@H](Cc1ccccc1)NC(=O)[C@@H](NC(=O)CNC(=O)[C@H](CCC(=O)O)NC(=O)CNC(=O)[C@H](C)N)[C@@H](C)O)[C@@H](C)O)C(C)C)C(=O)N[C@@H](CCC(=O)O)C(=O)N[C@@H](Cc1ccccc1)C(=O)N[C@@H](CC(C)C)C(=O)N[C@@H](CCCCN)C(=O)N[C@@H](CC(N)=O)C(N)=O` [Compound 1], for which, in experiment [1], the “% drop in glucose” value amounted to 40%. Besides, the EC50 in experiment [2] is greater than 1 µM. As to `CC[C@H](C)[C@H](NC(=O)[C@H](Cc1ccccc1)NC(=O)[C@H](CC(C)C)NC(=O)[C@H](CCCNC(=N)N)NC(=O)[C@@H](NC(=O)[C@H](C)NC(=O)[C@H](CCC(=O)O)NC(=O)[C@H](CCC(=O)O)NC(=O)[C@H](CCC(=O)O)NC(=O)[C@H](CC(C)C)NC(=O)[C@H](CCC(N)=O)NC(=O)[C@H](CCCCN)NC(=O)[C@H](CO)NC(=O)[C@H](CC(C)C)NC(=O)[C@H](CC(=O)O)NC(=O)[C@H](CO)NC(=O)[C@@H](NC(=O)[C@H](Cc1ccccc1)NC(=O)[C@@H](NC(=O)[C@H](C)NC(=O)[C@H](CCC(=O)O)NC(=O)CNC(=O)[C@@H](N)Cc1c[nH]cn1)[C@@H](C)O)[C@@H](C)O)C(C)C)C(=O)N[C@@H](CCC(=O)O)C(=O)N[C@@H](Cc1ccccc1)C(=O)N[C@@H](CC(C)C)C(=O)N[C@@H](CCCCN)C(=O)N[C@@H](CC(N)=O)C(N)=O` [Compound 3], in experiment [1], the “% drop in glucose” value stood at 32%. For the same molecule, in experiment [2], the EC50 is greater than 10 µM. Take `CC[C@H](C)[C@H](NC(=O)[C@H](Cc1ccccc1)NC(=O)[C@H](CC(C)C)NC(=O)[C@H](CCCNC(=N)N)NC(=O)[C@@H](NC(=O)[C@H](C)NC(=O)[C@H](CCC(=O)O)NC(=O)[C@H](CCC(=O)O)NC(=O)[C@H](CCC(=O)O)NC(=O)[C@H](CC(C)C)NC(=O)[C@H](CCC(N)=O)NC(=O)[C@H](CCCCN)NC(=O)[C@H](CO)NC(=O)[C@H](CC(C)C)NC(=O)[C@H](C)NC(=O)[C@H](CO)NC(=O)[C@@H](NC(=O)[C@H](Cc1ccccc1)NC(=O)[C@@H](NC(=O)CNC(=O)[C@H](CCC(=O)O)NC(=O)CNC(=O)[C@@H](N)Cc1c[nH]cn1)[C@@H](C)O)[C@@H](C)O)C(C)C)C(=O)N[C@@H](CCC(=O)O)C(=O)N[C@@H](Cc1ccccc1)C(=O)N[C@@H](CC(C)C)C(=O)N[C@@H](CCCCN)C(=O)N[C@@H](CC(N)=O)C(N)=O` [Compound 4]: the “% drop in glucose” value in experiment [1] is recorded as 42%. For the same molecule, the EC50 in experiment [2] is greater than 10 µM. As a reminder, the IC50 is the midpoint of a concentration-inhibition curve. A higher IC50 goes with a need for much substance. Exendin-4 [SEQ. ID. NO. 2] (peptide) came in with an IC50 in experiment [3] of 0.0007 µM. This lies in the sub-nanomolar range. Take `CC[C@H](C)[C@H](NC(=O)[C@H](Cc1ccccc1)NC(=O)[C@H](CC(C)C)NC(=O)[C@H](CCCNC(=N)N)NC(=O)[C@@H](NC(=O)[C@H](C)NC(=O)[C@H](CCC(=O)O)NC(=O)[C@H](CCC(=O)O)NC(=O)[C@H](CCC(=O)O)NC(=O)[C@H](CC(C)C)NC(=O)[C@H](CCC(N)=O)NC(=O)[C@H](CCCCN)NC(=O)[C@H](CO)NC(=O)[C@H](CC(C)C)NC(=O)[C@H](CC(=O)O)NC(=O)[C@H](CO)NC(=O)[C@@H](NC(=O)[C@H](Cc1ccccc1)NC(=O)[C@@H](NC(=O)CNC(=O)[C@H](C)NC(=O)CNC(=O)[C@@H](N)Cc1c[nH]cn1)[C@@H](C)O)[C@@H](C)O)C(C)C)C(=O)N[C@@H](CCC(=O)O)C(=O)N[C@@H](Cc1ccccc1)C(=O)N[C@@H](CC(C)C)C(=O)N[C@@H](CCCCN)C(=O)N[C@@H](CC(N)=O)C(N)=O` [Compound 2]: the “% drop in glucose” value in experiment [1] is 41%. The EC50 in experiment [2] is greater than 10 µM.
